One assay addresses T1, His-GST-TVMV-hRIPK1(1-324) (Homo sapiens, UniProt Q13546).
T1 construct: The coding region of human RIPK1(1-324) flanked by NdeI site at 5′ end; made in house; host or cells: Spodoptera frugiperda (Sf9) insect cells, baculovirus
T1 sequence (Q13546 1-324): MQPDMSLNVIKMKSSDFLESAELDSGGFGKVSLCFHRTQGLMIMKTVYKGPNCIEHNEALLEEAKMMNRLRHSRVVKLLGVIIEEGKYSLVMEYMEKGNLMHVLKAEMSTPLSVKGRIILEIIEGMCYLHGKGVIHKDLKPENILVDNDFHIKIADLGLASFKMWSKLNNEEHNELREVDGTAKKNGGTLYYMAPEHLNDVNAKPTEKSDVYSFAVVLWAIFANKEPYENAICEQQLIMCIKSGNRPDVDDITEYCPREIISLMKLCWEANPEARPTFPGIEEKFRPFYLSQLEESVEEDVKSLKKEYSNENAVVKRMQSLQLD
In words: RIPK1 HTRF Binding Assay. Particulars: x marks IC50 class 20-200 nM; read-out: RIPK1 HTRF binding 20-200 nM. Here is the method: The plate was incubated at rt for 1 h.
Cloning and Baculovirus Expression of RIPK1 Construct
Baculovirus was generated for the construct using the Bac-to-Bac baculovirus expression system (Invitrogen) according to the manufacturer's protocol. Briefly, recombinant bacmid was isolated from transformed DH10Bac E. coli competent cells (Invitrogen) and used to transfect Spodoptera frugiperda (Sf9) insect cells (Invitrogen). Baculovirus was harvested 72 hours post transfection and a virus stock was prepared by infecting fresh Sf9 cells at a 1/1000 (v/v) ratio for 66 hours.
The production was carried out either at a 10 L scale in a 22 L cellbag (GE Healthcare Bioscience, Pittsburgh, Pa.) or at a 20 L scale in a 50 L cellbag using WAVE-Bioreactor System 20/50 (GE Healthcare Bioscience). The infected cells were harvested by centrifugation at 2000 rpm for 20 min at 4° C. in a SORVALL® RC12BP centrifuge. The cell pellets was stored at −70° C. before protein was purified.
RIPK1 containing cell paste was resuspended in 50 mM Tris pH 7.5, 150 mM NaCl, 10 mM imidazole, 5% glycerol, 5 mM MgSO4, 1 mM TCEP, 25 U/ml Benzonase, and Complete Protease Inhibitor tablets (1/50 ml, Roche Diagnostics, Indianapolis, Ind.). […] The suspension was clarified by centrifugation at 136,000×g for 40 min, at 4° C. The lysate was decanted from the pellet and passed through a 5 ml NiNTA Superflow cartridge (Qiagen, Valencia, Calif.) using an AKTA Pure (GE Healthcare). Column was eluted with 10 CV linear gradient into 50 mM Tris 7.5, 150 mM NaCl, 500 mM imidazole, 5% glycerol, 1 mM TCEP. Peak fractions were pooled and loaded directly onto 5 ml GSTrap 4B column (GE Healthcare). Column was washed with 50 mM Tris 7.0, 150 mM NaCl, 5% glycerol, 1 mM DTT and eluted in 10 CV linear gradient into 50 mM Tris 8.0, 150 mM NaCl, 20 mM reduced glutathione, 5% glycerol, 1 mM DTT. Fractions identified by SDS-PAGE as containing RIPK1 were pooled and concentrated using 30 kDa MWCO spin concentrators (Amicon Ultra-15, Millipore, Billerica, Mass.) and loaded onto a HiLoad 26/600 Superdex 200 column (GE Healthcare) equilibrated in 25 mM Tris 7.5, 150 mM NaCl, 2 mM TCEP, 5% glycerol.
Protein was aliquoted and stored at −80° C.
In the case of `Cc1nc(C)c(-c2ccn3nc(N)nc3c2)cc1C(=O)NCC[C@@H](O)c1ccc(Cl)cc1` [Example 178, 5-{2-amino-[1,2,4]triazolo[1,5-a]pyridin-7-yl}-N-[(3R)-3-(4-chlorophenyl)-3-hydroxypropyl]-2,6-dimethylpyridine-3-carboxamide], the IC50 fell in the range of 20 to 200 nM.

In the case of `COc1nc(C)c(-c2ccn3nc(N)nc3c2)cc1C(=O)NCC[C@H](O)c1ccc(Cl)cc1` [Example 193, 5-{2-amino-[1,2,4]triazolo[1,5-a]pyridin-7-yl}-N-[(3S)-3-(4-chlorophenyl)-3-hydroxypropyl]-2-methoxy-6-methylpyridine-3-carboxamide], the IC50 was 20 to 200 nM.

Take `COc1ncc(-c2ccn3nc(N)nc3c2)cc1C(=O)NCC[C@H](O)c1ccc(Cl)cc1` [Example 157, 5-{2-amino-[1,2,4]triazolo[1,5-a]pyridin-7-yl}-N-[(3S)-3-(4-chlorophenyl)-3-hydroxypropyl]-2-methoxypyridine-3-carboxamide]: the IC50 was in the range of 20 to 200 nM.

The assay is the same for the next values; noted with them: x marks IC50 class <20 nM; read-out: RIPK1 HTRF binding <20 nM.
`[2H]C([2H])([2H])Oc1nc(C)c(-c2ccn3nc(N)nc3c2)cc1C(=O)NC(C)c1cc(OC(F)(F)F)ccc1F` (single isomer, unassigned) [Example 97-2, 5-{2-amino-[1,2,4]triazolo[1,5-a]pyridin-7-yl}-N-{1-[2-fluoro-5-(trifluoromethoxy)phenyl]ethyl}-2-(deutero)methoxy-6-methylpyridine-3-carboxamide]: the IC50 was below 20 nM.

As for “5-(2-amino-[1,2,4]triazolo[1,5-a]pyridin-7-yl)-N-(3,5-difluoro-2-isobutoxybenzyl)-2-methoxynicotinamide [Example 341]”, the IC50 is below 20 nM.

On to `COc1ncc(-c2ccn3nc(N)nc3c2)cc1C(=O)NC(C)c1cc(OC(F)(F)F)ccc1F` (single isomer, unassigned) [Example 89-2, 5-{2-amino-[1,2,4]triazolo[1,5-a]pyridin-7-yl}-N-{1-[2-fluoro-5-(trifluoromethoxy)phenyl]ethyl}-2-methoxypyridine-3-carboxamide], for which the IC50 is below 20 nM.

Consider “5-(2-amino-[1,2,4]triazolo[1,5-a]pyridin-7-yl)-2-methoxy-N-(2-(pyrrolidine-1-carbonyl)benzyl)nicotinamide [Example 379]”, for which the IC50 was below 20 nM.

For the compound “(S)-2-(2-amino-[1,2,4]triazolo[1,5-a]pyridin-7-yl)-N-(3-(4-chlorophenyl)-3-hydroxypropyl)-5-methylisonicotinamide [Example 397]”, the IC50 was below 20 nM.

In the case of “(R)-2-(2-amino-[1,2,4]triazolo[1,5-a]pyridin-7-yl)-N-(1-(2-fluoro-5-(trifluoromethyl)phenyl)ethyl)-5-methylisonicotinamide [Example 396]”, the IC50 is below 20 nM.

Turning to `Cc1nc(C)c(-c2ccn3nc(N)nc3c2)cc1C(=O)NCC[C@H](O)c1ccc(Cl)cc1` [Example 179, 5-{2-amino-[1,2,4]triazolo[1,5-a]pyridin-7-yl}-N-[(3S)-3-(4-chlorophenyl)-3-hydroxypropyl]-2,6-dimethylpyridine-3-carboxamide], the IC50 is below 20 nM.

Regarding `Cc1ncc(-c2ccn3nc(N)nc3c2)cc1C(=O)NC(C)c1cc(C(F)(F)F)ccc1F` (single isomer, unassigned) [Example 99-2, 5-{2-amino-[1,2,4]triazolo[1,5-a]pyridin-7-yl}-N-{1-[2-fluoro-5-(trifluoromethyl)phenyl]ethyl}-2-methylpyridine-3-carboxamide], the IC50 is below 20 nM.

Regarding `Cc1ncc(-c2ccn3nc(N)nc3c2)cc1C(=O)NCCC(C)c1ccccc1` (stereo not shown) [Example 82, 5-{2-Amino-[1,2,4]triazolo[1,5-a]pyridin-7-yl}-2-methyl-N-(3-phenylbutyl)pyridine-3-carboxamide], the IC50 was below 20 nM.

On to “(R)-5-(2-amino-[1,2,4]triazolo[1,5-a]pyridin-7-yl)-N-(1-(2-fluoro-5-(trifluoromethoxy)phenyl)ethyl-2,2,2-d3)-2-methoxynicotinamide [Example 345]”, for which the IC50 was below 20 nM.

Still in this assay, the particulars now being: x marks IC50 class >200 nM; read-out: RIPK1 HTRF binding >200 nM.
As to `COc1ncc(-c2ccn3nc(N)nc3c2)cc1C(=O)NCCC(O)c1ccc(Cl)cn1` (stereo not shown) [Example 75, 5-{2-Amino-[1,2,4]triazolo[1,5-a]pyridin-7-yl}-N-[3-(5-chloropyridin-2-yl)-3-hydroxypropyl]-2-methoxypyridine-3-carboxamide], the IC50 is above 200 nM.

A further assay concerns MLKL phosphorylation in HT29-L23 human colorectal adenocarcinoma cells. Put plainly: MLKL Phosphorylation High-Content Assay. The format is cell-based. Particulars: Homo sapiens, x marks IC50 class 20-200 nM, read-out: pMLKL cell activity 20-200 nM. Here is the method:
MLKL Phosphorylation High-Content Assay
Following six hours incubation at 37° C. […] MLKL phosporylation was detected using anti-MLKL (phospho S358) antibody (Abcam #ab187091) (1:1000 dilution in Blocking Buffer [PBS supplemented with 0.1% BSA]) with overnight incubation at 4° C. […] Following another three cycles of washes in PBS, the microplates were sealed, and cellular images were acquired in the Cellomics ArrayScan VTI high-content imager equipped with an X1 camera. […] The image sets were analyzed using the Compartmental Analysis Bioapplication software (Cellomics). The level of MLKL phosphorylation was quantified as MEAN CircRingAvgIntenRatio. […] The data were fitted using the 4-parameter logistic equation to calculate the IC50 and Ymax values.
As for `COc1ncc(-c2ccn3nc(N)nc3c2)cc1C(=O)NC(C)CCc1ccccc1` (stereo not shown) [Example 101, 5-{2-amino-[1,2,4]triazolo[1,5-a]pyridin-7-yl}-2-methoxy-N-(4-phenylbutan-2-yl)pyridine-3-carboxamide], the IC50 was 20 to 200 nM.

As for `Cc1nc(C)c(-c2ccn3nc(N)nc3c2)cc1C(=O)NCc1cc(F)cc(F)c1O[C@H]1CCOC1` [Example 295, (S)-5-(2-amino-[1,2,4]triazolo[1,5-a]pyridin-7-yl)-N-(3,5-difluoro-2-((tetrahydrofuran-3-yl)oxy)benzyl)-2,6-dimethylnicotinamide], the IC50 was in the range of 20 to 200 nM.

Take `Nc1nc2cc(-c3cnc(Cl)c(C(=O)NCc4cc(C(F)(F)F)ccc4F)c3)ccn2n1` [Example 170, 5-{2-amino-[1,2,4]triazolo[1,5-a]pyridin-7-y1}-2-chloro-N-{[2-fluoro-5-(trifluoromethyl)phenyl]methyl}pyridine-3-carboxamide]: the IC50 fell in the range of 20 to 200 nM.

With `COc1ncc(-c2ccn3nc(N)nc3c2)cc1C(=O)NCc1cccc(F)c1C(=O)N1CCC(F)(F)C1` [Example 378, 5-(2-amino-[1,2,4]triazolo[1,5-a]pyridin-7-yl)-N-(2-(3,3-difluoropyrrolidine-1-carbonyl)-3-fluorobenzyl)-2-methoxynicotinamide], the IC50 lay within 20 to 200 nM.

The same assay, now with this note: Homo sapiens, x marks IC50 class <20 nM, read-out: pMLKL cell activity <20 nM.
`Nc1nc2cc(-c3cnc(Cl)c(C(=O)Nc4cnn(Cc5ccccc5)c4)c3)ccn2n1` [Example 83, 5-{2-Amino-[1,2,4]triazolo[1,5-a]pyridin-7-yl}-N-(1-benzyl-1H-pyrazol-4-yl)-2-chloropyridine-3-carboxamide]: the IC50 was below 20 nM.

Still in this assay, the particulars now being: Homo sapiens, x marks IC50 class >200 nM, read-out: pMLKL cell activity >200 nM.
Take `COc1ncc(-c2ccn3nc(N)nc3c2)cc1NC(=O)c1cnn(Cc2ccccc2)c1` [Example 413, N-(5-(2-amino-[1,2,4]triazolo[1,5-a]pyridin-7-yl)-2-methoxypyridin-3-yl)-1-benzyl-1H-pyrazole-4-carboxamide]: the IC50 is above 200 nM.

Take `COc1ncc(-c2ccn3nc(N)nc3c2)cc1C(=O)NC[C@H]1C[C@@H]1c1ccc(F)cc1` [Example 112, 5-{2-amino-[1,2,4]triazolo[1,5-a]pyridin-7-yl}-N-{[(1S,2S)-2-(4-fluorophenyl)cyclopropyl]methyl}-2-methoxypyridine-3-carboxamide]: the IC50 was above 200 nM.

As for `COc1ncc(-c2ccn3nc(N)nc3c2)cc1C(=O)NCCC(O)c1ccc(F)cc1` (single isomer, unassigned) [Example 71-2, 5-(2-Amino-[1,2,4]triazolo[1,5-a]pyridin-7-yl)-N-(3-(4-fluorophenyl)-3-hydroxypropyl)-2-methoxynicotinamide], the IC50 was above 200 nM.
